Consider one sequence from US9790496B2, “Microrna compounds and methods for modulating MIR-21 activity” (Regulus Therapeutics, Inc., priority 2011, dated 2017).

“And” between values parts separate entries of the source, which are not always exact repeats. Equal entries are not always repeated. “Also recorded” adds a separate entry of the source.

One data set relates to miR-21. Description: miR-21 luciferase sensor assay in Hela cells. In kind it is cell-based.
Data set [1] has as its system ischemia reperfusion injury (IRI) model. Description: Unilateral IRI model: collagen area fraction of kidney tissue. In kind it is in vivo, mouse. The procedure:
(§1) A model of ischemia reperfusion injury (IRI) is created in the mouse through unilateral or bilateral clamping of kidney arteries, which leads to tubule damage, inflammation, and fibrosis. Kidney dysfunction can occur either early (<5 days) or late (>7 days) in this model, with the early time points useful to test candidate agents for the treatment of acute kidney injury, and the later time points useful to model chronic fibrosis.
(§2) Anti-miR-21 compounds were tested in the unilateral IRI model. Unilateral IRI was induced for a period of 30 minutes. Treatment groups were as follows: sham IRI procedure; IRI with PBS administered subcutaneously; IRI with anti-miR-21 compound 25070 administered intraperitoneally at a dose of 20 mg/kg; the 2′-fluoro/2′-MOE modified anti-miR-21 25919 administered intraperitoneally at a dose of 20 mg/kg; and a 2′-fluoro/2′ modified mismatch anti-miR-21 (having three mismatches to the sequence of miR-21) 25319 administered intraperitoneally at a dose of 20 mg/kg. PBS or anti-miR compound was administered on days 5, 6, and 7 following IRI, and animals were sacrificed 14 days after IRI. As anti-miR compound is administered 5 days following the injury to the kidney, or later, when fibrosis has already occurred to some extent, this treatment regimen is considered a therapeutic regimen, rather than a prophylactic regimen.
(§3) Kidney tissue was collected for analysis of collagen 1A1 and collagen 3A1 expression (shown in Table O), and collagen area fraction (shown in Table P).
(§4) A similar study was performed with the same treatment groups and additional days of treatment. In this study, treatments were administered intraperitoneally at days 5, 6, 7, 14, and 21 following the IRI procedure Animals were sacrificed on Day 27, and kidney tissue was collected for analysis of collagen 1A1 and collagen 3A1 expression, as well as collagen area fraction.

Data set [2] relates to collagen 1A1 and collagen 3A1 expression in kidney, ischemia reperfusion injury (IRI) model. The data set can be described thus: Unilateral ischemia reperfusion injury (IRI) model: kidney collagen 1A1 and collagen 3A1 expression. In kind it is in vivo, mouse. As to the method:
as §1, §2, §3, §4
In order to assess the flexibility of administration of the anti-miR-21 compound 25070, the activity of the compound in the 14 day study above, where anti-miR-21 was administered at […] following the IRI procedure, to a different 14 day study where anti-miR-21 was administered intraperitoneally at days 3, 5, and 7 following the IRI procedure.

In data set [3] the test system is unilateral ureteral obstruction (UUO) model of fibrosis. The data set can be described thus: UUO model: collagen area fraction of kidney tissue (picrosirius red histology). In kind it is in vivo, mice. The settings on record: UUO comparison study, 25070 20 mg/kg s.c., irbesartan PO. As to the method: Control treatment groups included UUO only (sham) and UUO with PBS administered subcutaneously. An additional control group included UUO with Tween-MC/20 carrier perorally. 25070 administered subcutaneously at dose of 20 mg/kg at 5 days prior to, 2 days prior to, and 3 days after, the UUO procedure. Irbesartan was administered perorally on daily on days 0 through 7 following the UUO procedure. Animals were sacrificed on Day 10 following the UUO procedure. Kidney tissue was collected for measurement of collagen 1A1 and collagen 3A1 expression.
The ‘collagen area fraction’ is measured histologically through quantitative image processing of the area of kidney tissue that is stained red by the picrosirius red stain; the percent detected as red is normalized by the area of kidney section.

Where [4] appears, read: IRI, 14 day study, dosing Day 3, 5, 7 intraperitoneally, fold change relative to sham.
The mark [5] stands for this setting: unilateral IRI, 20 mg/kg intraperitoneally on days 5, 6, 7, sacrifice 14 days after IRI, 20 mg/kg.
[6] abbreviates: unilateral IRI, intraperitoneally on days 5, 6, 7, 14, 21, sacrifice Day 27.

In the case of “AECSATCSAGTCSTGAUSAAGCSTAE (ACATCAGTCTGATAAGCTA; modified nucleosides coded in name, code key not given here) [Compound 25070]”, the “luciferase value normalized to beta-galactosidase activity” value in the data set with miR-21 (4 nM oligonucleotide, Hela cells, mock transfection 50) turned out to be 99; in the data set with miR-21 (.16 nM oligonucleotide, Hela cells, mock transfection 45) it was 65; in the data set with miR-21 (.8 nM oligonucleotide, Hela cells, mock transfection 33), 87. In the data set on miR-21 (Hela cells), the “inhibition of miR-21 in the luciferase assay (in words)” value was “demonstrated inhibition of miR-21 in a dose-dependent manner; also recorded: potent inhibitor of miR-21 activity”. Besides, the “fold change in luciferase value relative to the mock treatment” value was 1.04 in the data set on miR-21 (concentration of anti-miR compound 0.2 (unit not given)); 1.01 in the data set on miR-21 (concentration of anti-miR compound 0.6 (unit not given)); 1.14 in the data set with miR-21 (concentration of anti-miR compound 1.9 (unit not given)); 6.22 in the data set on miR-21 (concentration of anti-miR compound 5.6 (unit not given)); 11.28 in the data set on miR-21 (concentration of anti-miR compound 16.7 (unit not given)); 11.00 in the data set with miR-21 (concentration of anti-miR compound 50.0 (unit not given)). The “Collagen Area Fraction (#), individual animal” value in data set [1] (20 mg/kg intraperitoneally on days 5, 6, 7, sacrifice 14 days after IRI, 20 mg/kg) is 10.266 and 11.772 and 10.267 and 8.404 and 7.862 and 6.975 and 8.381 and 13.773; in data set [1] (intraperitoneally on days 5, 6, 7, 14, 21, sacrifice Day 27) it was 7.354 and 9.241 and 9.589 and 11.573 and 8.182 and 10.695 and 13.978 and 10.12. Besides, the “Collagen Area Fraction (#), Mean” value in data set [1] (20 mg/kg intraperitoneally on days 5, 6, 7, sacrifice 14 days after IRI, group mean) is listed as 9.7. Besides, the “reduction in collagen area fraction (in words)” value in data set [1] (i.p. 20 mg/kg on days 5, 6, 7, sacrificed 14 days after IRI) is on record as “statistically significant reduction”; in data set [1] (i.p. on days 5, 6, 7, 14, 21, sacrificed Day 27), “statistically significant reduction”. The “reduction of collagen 1A1 or collagen 3A1 expression relative to sham (in words)” value in data set [2] (IRI, 14 day studies, two dosing schedules compared (days 3, 5, 7 i.p.)) is on record as “statistically significant reduction of collagen expression with either dosing schedule”. Also, the “Collagen 1A1 (Normalized Expression), individual animal” value in data set [2] (setting [4]) is 37.5 and 21.9 and 35.3 and 26.0 and 24.9 and 16.8 and 30.8 and 34.3 and 36.8 and 9.4 and 28.0 and 24.6; in data set [2] (setting [5]) it was 81.7 and 57.4 and 37.9 and 55.3 and 22.3 and 52.4 and 53.0 and 41.5; in data set [2] (setting [6]), 26.4 and 37.4 and 41.9 and 36.8 and 14.1 and 27.7 and 29.4 and 37.6. Besides, the “Collagen 3A1 (Normalized Expression), individual animal” value was 35.3 and 23.6 and 32.1 and 25.1 and 31.3 and 18.6 and 30.3 and 37.6 and 40.0 and 9.5 and 23.2 and 28.7 in data set [2] (setting [4]); 57.8 and 18.1 and 39.3 and 36.0 and 20.6 and 38.6 and 33.4 and 29.7 in data set [2] (setting [5]); 16.4 and 27.0 and 28.5 and 19.6 and 11.3 and 19.3 and 21.4 and 23.1 in data set [2] (setting [6]). Also, the “Collagen Area Fraction (%), Mean” value in data set [3] (group mean) is on record as 8.0%. Further, in data set [3] (sacrifice Day 10, 20 mg/kg), the “Collagen Area Fraction (%), individual animal” value was 7.632% and 9.937% and 8.015% and 6.611% and 6.319% and 11.272% and 6.803% and 7.405%.
